Laboratory results as given in publication PMC9822975, “Functional analysis in a model sea anemone reveals phylogenetic complexity and a role in cnidocyte discharge of DEG/ENaC ion channels” (Communications Biology, 2023).
Where two headings read alike, the source gives them in different places.

Legend:
[1] = system: T1, NeNaC2; assay: two-electrode voltage clamp, Xenopus oocytes; format: cell-based, Nematostella vectensis; conditions: channel activated with pH 6.0, -70 mV
T1 construct: full length, homomeric in Xenopus laevis oocytes (pRSSP vector, cRNA); residues H141 and G516 (DEG position)

[2] = system: T2, NeNaC8; assay: two-electrode voltage clamp, Xenopus oocytes; format: cell-based, Nematostella vectensis; conditions: -70 mV, read-out: Apparent IC50
T2 construct: full length, homomeric in Xenopus laevis oocytes (pRSSP vector, cRNA)

| IC50 ([1]; complete inhibition at high concentrations, n = 14) [µM] | IC50 ([2]; 1.8 mM Ca2+ (standard bath), pH 7.4, not competitive with Ca2+, n = 14) [µM] | SMILES | IC50 ([1]; inhibition incomplete even at high concentrations, n = 10) [µM] | IC50 ([2]; channel opened by bath with 100 nM Ca2+, n = 11) [µM] |
| --- | --- | --- | --- | --- |
| 2.4 ± 0.9 | 0.124 ± 0.075 | N=C(N)c1ccc(N=NNc2ccc(C(=N)N)cc2)cc1 [diminazene] |  |  |
|  |  | N=C(N)NC(=O)c1nc(Cl)c(N)nc1N [amiloride] | 1300 ± 2300 | 310 ± 180 |
